Laboratory results: patent US10316017B2, “COT modulators and methods of use thereof” (Gilead Sciences, Inc., priority 2015, dated 2019)

Assays:
[1] = target: T1, human Cot catalytic domain (30-397 amino acids) (Homo sapiens, UniProt P41279); assay: High Throughput Cot Biochemical Assay (KinEASE TR-FRET); details: Cot biochemical HTRF (KinEASE TR-FRET) assay; read-out: IC50 HTRF
T1 construct: Purified recombinant human Cot catalytic domain (30-397 amino acids) was purchased from Cama Biosciences; purchased Cama Biosciences (so in the source)
T1 sequence (P41279 30-397): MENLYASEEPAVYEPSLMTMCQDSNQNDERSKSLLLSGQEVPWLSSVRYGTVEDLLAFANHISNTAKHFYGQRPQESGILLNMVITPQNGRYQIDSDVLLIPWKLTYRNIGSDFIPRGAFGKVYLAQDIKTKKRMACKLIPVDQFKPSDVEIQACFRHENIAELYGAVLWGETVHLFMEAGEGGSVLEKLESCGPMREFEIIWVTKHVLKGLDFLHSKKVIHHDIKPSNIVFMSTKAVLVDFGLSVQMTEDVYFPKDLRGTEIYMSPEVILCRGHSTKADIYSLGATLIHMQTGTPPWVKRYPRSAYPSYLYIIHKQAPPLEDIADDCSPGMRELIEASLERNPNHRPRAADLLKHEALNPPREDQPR
In short: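 Reaction of 5 nM recombinant human Cot catalytic domain (aa 30-397) with 1 μM STK3 peptide (XL665-labeled) and 400 μM ATP in 10 mM MOPS pH 7.0, 10 mM MgOAc, 1 mM DTT, 0.5 mg/mL BSA, 0.1% DMSO. Phosphopeptide detected by TR-FRET with europium anti-phospho antibody.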

[2] = system: TNFα production in LPS-stimulated human monocytes; assay: Cot Monocyte TNFα Cell Based Assay; details: Homo sapiens, Monocyte, TNFα in LPS-stimulated human monocytes; read-out: EC50 TNF
In short: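 Cells at 5,000/well were pretreated with compound for 1 h at 37 °C (0.5% DMSO final), then stimulated with 50 pg/ml LPS for 4 h at 37 °C. Supernatant TNFα was measured by two-antibody TR-FRET after overnight room-temperature incubation; values are percent of control between unstimulated and stimulated wells.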

Structure (SMILES)	IC50 [1]	EC50 [2]
CC(C)(C)N1CCC(n2cc([C@@H](Nc3cc(Cl)c4ncc(C#N)c(NCC5CCCCC5)c4c3)c3ccccc3)nn2)CC1 [Example 602, (S)-6-(((1-(1-(tert-butyl)piperidin-4-yl)-1H-1,2,3-triazol-4-yl)(phenyl)methyl)amino)-8-chloro-4-chloro-4-((cyclohexylmethyl)amino) quinoline-3-carbonitrile]	0.077 µM	3.05 µM
CC(C)(C)N1CCC(n2cc([C@@H](Nc3cc(Cl)c4ncc(C#N)c(NN5CCCCC5)c4c3)c3ccccc3)nn2)CC1 [Example 603, (S)-6-(((1-(1-(tert-butyl)piperidin-4-yl)-1H-1,2,3-triazol-4-yl)(phenyl)methyl)amino)-8-chloro-4-(piperidin-1-ylamino)quinoline-3-carbonitrile]	0.061 µM	0.561 µM
CC(C)(C)N1CCC(n2cc([C@@H](Nc3cc(Cl)c4ncc(C#N)c(NN5CCCCCC5)c4c3)c3ccccc3)nn2)CC1 [Example 604, (S)-4-(azepan-1-ylamino)-6-(((1-(1-(tert-butyl)piperidin-4-yl)-1H-1,2,3-triazol-4-yl)(phenyl)methyl)amino)-8-chloroquinoline-3-carbonitrile]	0.156 µM	3.04 µM
N#Cc1cnc2c(Cl)cc(N[C@@H](c3ccccc3)c3cn(CC(O)C(F)(F)F)nn3)cc2c1Nc1ccc(F)c(Cl)c1 (stereo partly drawn) [Example 605, 8-chloro-4-((3-chloro-4-fluorophenyl)amino)-6-(((1S)-phenyl(1-(3,3,3-trifluoro-2-hydroxypropyl)-1H-1,2,3-triazol-4-yl)methyl)amino)quinoline-3-carbonitrile]	0.041 µM	0.375 µM

Now those with a lower IC50 [1], led by results:

IC50 [1]	EC50 [2]	Structure (SMILES)
0.002 µM	0.348 µM	CN(C)C(=O)c1cccc([C@H](Nc2cc(Cl)c3ncc(C#N)c(Nc4cccc(Cl)c4F)c3c2)c2c[nH]nn2)c1 [Example 606, (S)-3-(((8-chloro-4-((3-chloro-2-fluorophenyl)amino)-3-cyanoquinolin-6-yl)amino)(1H-1,2,3-triazol-4-yl)methyl)-N,N-dimethylbenzamide]
0.002 µM	0.198 µM	CC(C)n1cc([C@@H](Nc2cc(Cl)c3ncc(C#N)c(Nc4cccc(Cl)c4F)c3c2)c2cccc(C(=O)N(C)C)c2)nn1 [Example 607, (S)-3-(((8-chloro-4-((3-chloro-2-fluorophenyl)amino)-3-cyanoquinolin-6-yl)amino)(1-isopropyl-1H-1,2,3-triazol-4-yl)methyl)-N,N-dimethylbenzamide]
0.001 µM	0.041 µM	CN(C)C(=O)c1cccc([C@H](Nc2cc(Cl)c3ncc(C#N)c(Nc4cccc(Cl)c4F)c3c2)c2cn(C3CCN(C(C)(C)C)CC3)nn2)c1 [Example 608, (S)-3-((1-(1-(tert-butyl)piperidin-4-yl)-1H-1,2,3-triazol-4-yl)((8-chloro-4-((3-chloro-2-fluorophenyl)amino)-3-cyanoquinolin-6-yl)amino)methyl)-N,N-dimethylbenzamide]
0.007 µM	0.384 µM	N#Cc1cnc2c(Cl)cc(N[C@@H](c3ccccc3)c3cn(C4CC4)nn3)cc2c1Nc1ccc(F)c(Cl)c1 [Example 609, (S)-8-chloro-4-((3-chloro-4-fluorophenyl)amino)-6-(((1-cyclopropyl-1H-1,2,3-triazol-4-yl)(phenyl)methyl)amino) quinoline-3-carbonitrile]
0.014 µM	0.337 µM	CC(C)(O)Cn1cc([C@@H](Nc2cc(Cl)c3ncc(C#N)c(Nc4ccc(F)c(Cl)c4)c3c2)c2ccccc2)nn1 [Example 610, (S)-8-chloro-4-((3-chloro-4-fluorophenyl)amino)-6-(((1-(2-hydroxy-2-methylpropyl)-1H-1,2,3-triazol-4-yl)(phenyl)methyl)amino) quinoline-3-carbonitrile]
